# Laboratory results reported in patent publication US6596497B1, “Screening of antiviral compounds targeted to the HIV-1 gp41 core structure” (New York Blood Center, Inc., priority 1999, dated 2003).
# Where two headings read alike, the source gives them in different places.
# How the values were obtained:
# [1] = target: T1, N-36/C-34 complex (HIV-1 gp41 core) (Human immunodeficiency virus type 1 group M subtype B, UniProt P04578); experiment: biochemical; assay type: binding; details: for Inhibitory activity on complex formation by N-36 and C-34 (in words): no concentration stated; for Inhibition of NC-1 detectable complex formation by N-36 and C-34 (in words): compounds at 10 μg/ml, FIG. 13
# T1 construct: Peptides derived from the NHR and CHR regions of gp41, designated N- and C-peptides; made in house; host or cells: chemical synthesis (solid-phase FMOC)
# Method: For detection of peptide complexes, a direct and a sandwich ELISA were used. In the direct ELISA, the N- and C-peptides were mixed at equimolar concentration in PBS and diluted in coating buffer. Then, the peptide complexes were directly coated onto the wells of microplate. In the sandwich ELISA, the plate was coated with IgG (10 μg/ml) purified from rabbit antisera directed against N36(L6)C34, followed by the addition of the peptide complexes formed by mixing N- and C-peptides in PBS in equimolar concentrations. To screen for antiviral agents, compounds were pre-incubated with N-peptides at 37° C. for 30 minutes before mixing with the C-peptides. The binding of the peptide complexes to the antibodies was then detected as described above.
# The percentage of inhibition by the compounds of the binding of NC-1 to the peptide complexes was calculated as described in Jiang, S., K. Lin, and A. R. Neurath, 1991, “Enhancement of human immunodeficiency virus type-1 (HIV-1) infection by antisera to peptides from the envelope glycoproteins gp120/gp41”, J. Exp. Med., 174, 1557-1563.
# A sandwich ELISA was established to screen for compounds that interfere with the formation of the N-36/C-34 complex. N-36 (2 μM) was preincubated with compounds at graded concentrations at 37° C. for 30 minutes, followed by the addition of C-34 (2 μM). After incubation at 37° C. for 30 minutes, the mixture was added to wells of a 96-well polystyrene plate (Immulon I, Dynatech Laboratories, Inc., Chantilly, Va.) which were precoated with IgG (10 μg/ml) purified from rabbit antisera directed against N36(L6)C34. […] Absorbance at 450 nm (A450) was read using an ELISA reader (Dynatech Laboratories, Inc., Chantilly, Va.). The percentage of inhibition by the compounds of the binding of NC-1 to the peptide complexes was calculated as described in Jiang S., K. Lin, and A. R. Neurath, 1991, “Enhancement of human immunodeficiency virus type-1 (HIV-1) infection by antisera to peptides from the envelope glycoproteins gp120/gp41”, J. Exp. Med., 174, 1557-1563. The concentration for 50% inhibition (IC50) was calculated using a computer program, designated Calcusyn (Chou, T.-C., 1991, “The median-effect principle and the combination index for quantitation of synergism and antagonism. In Synergism and Antagonism in Chemotherapy”, T.-C. Chou and D. C. Rideout, editors, Academic Press, San Diego, 61-102).
# [2] = tested on: H9/HIV-1IIIB cells and MT-2 cells; experiment: cells; assay type: cell-based; details: for IC50: Human immunodeficiency virus 1, MT2, 2 h, read-out: IC50 ± SD Cell fusion; for Inhibitory activity on HIV-1-mediated cell fusion (in words): no concentration stated; for Inhibition of HIV-1-mediated cell fusion (in words): compounds at 10 μg/ml, FIG. 13
# Method: A dye transfer assay was used for detection of HIV-1-mediated cell fusion as described in Jiang et al., Nature, 365, 113 (1993). H9/HIV-1IIIB cells were labeled with a fluorescent reagent, 2′,7′-bis-(2-carboxyethyl)-5-and-6-carboxyfluorescein acetoxyethyl ester (BCECF-AM), (Molecular Probes, Inc., Eugene, Oreg.) and incubated with MT-2 cells (ratio=1:10) in a 96-well plate at 37° C. for 2 hours in the presence or absence of peptides or compounds tested. The fused and unfused BCECF-labeled HIV-1 infected cells were counted under an inverted fluorescence microscope (Zeiss, Germany) with an eyepiece micrometer discs. The percentage of inhibition of cell fusion was calculated as described in Jiang et al., 1993, Nature, 365, 113.
# A dye transfer assay was used for detection of HIV-1 mediated cell fusion as described in Jiang, S., K. Lin, N. Strick, and A. R. Neurath, 1993, Inhibition of HIV-1 infection by a fusion domain binding peptide from HIV-1 envelope glycoprotein gp41, Biochem. Biophys. Res. Commun., 195, 533-538.
# H9/HIV-1IIIB cells were labeled with a fluorescent reagent, 2′,7′-bis-(2-carboxyethyl)-5-and-6-carboxyfluorescein acetoxyethyl ester (BCECF-AM) (Molecular Probes, Inc., Eugene, Oreg.) and then incubated with MT-2 cells (ratio=1:10) in 96-well plates at 37° C. for 2 hours in the presence or absence of the compounds tested. The fused and unfused BCECF-labeled HIV-1 infected cells were counted under an inverted fluorescence microscope (Zeiss, Germany) with an eyepiece micrometer disc. The percentage of inhibition of cell fusion and the IC50 values were calculated as described in Jiang et al., (1993), Biochem. Biophys. Res. Commun., 195, 533-538.
# [3] = tested on: HIV-1IIIB; experiment: HIV-1-mediated cytopathic effect (CPE), XTT; assay type: cell-based; details: for selectivity ratio at 6 days: human, read-out: Selective Index (S.I.) = CC50/IC50 for CPE
# Method: The inhibitory activity of the compounds was determined by a calorimetric method based on protection of cells against HIV-1-mediated CPE, as described in Jiang et al., (1991), J. Exp. Med., 174, 1557-1563. 1×10^4 MT-2 cells in 96-well plates were infected with diluted HIV-1IIIB in 200 μl RPMI 1640 medium containing 10% FBS in the presence of compounds at graded concentrations. After 1 hour, 24 hours and 4 days, half of the culture media were changed. On the sixth day post infection, an indicator, XTT tetrazolium dye (1 mg/ml; 50 μl/well; PolySciences, Inc., Warrington, Pa.), was added to the cells. After 4 hours, the soluble intracellular formazan was determined calorimetrically at 450 nm. The percent of inhibition of CPE and the IC50 values were calculated as described above.
# [4] = In vitro cytotoxicity, XTT; assay type: cell-based; details: human
# Method: The in vitro cytotoxicity for MT-2 cells of the compounds was determined in 96-well plates using the XTT dye to measure cell viability in the absence of virus. Ten μl of 5% TRITON X-100 were added to the wells corresponding to positive controls (“P”) and 10 μl medium was added to wells corresponding to negative controls (“N”). The percent cytotoxicity was calculated using the following formula: % cytotoxicity=[(E−N)/(P−N)]×100%, wherein “E” represents experimental data in the presence of compounds. The concentration corresponding to 50% cytotoxicity (CC50) for MT-2 cells was calculated using the Calcusyn computer program. The selectivity index (S.I.=CC50/IC50) for each compound was calculated.
# [5] = Human immunodeficiency virus 1, MT2, read-out: IC50 ± SD CPE
# [6] = 50% cytotoxic concentration, MT-2 cells, no virus, read-out: CC50 ± SD
# [7] = Human immunodeficiency virus 1, MT2, MT-2 cells, sixth day post infection, read-out: IC50 ± SD CPE
# T1 sequence (P04578 546-581, one chain of several): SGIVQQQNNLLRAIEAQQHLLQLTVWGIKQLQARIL
Molecule,IC50 [1],Inhibitory activity on complex formation by N-36 and C-34 (in words) [1],IC50 [2],Inhibitory activity on HIV-1-mediated cell fusion (in words) [2],"IC50 [3, 5]",selectivity ratio at 6 days ([3]; MT-2 cells),Inhibitory activity on HIV-1-mediated CPE (in words) ([3]; no concentration stated),"CC50 [4, 6]","IC50 [3, 7]",CC50 [4],Inhibition of NC-1 detectable complex formation by N-36 and C-34 (in words) [1],Inhibition of HIV-1-mediated cell fusion (in words) [2]
"Cc1ccc(N=Nc2c(S(=O)(=O)O)cc3cc(S(=O)(=O)O)cc(Nc4nc(Cl)nc(Nc5ccccc5)n4)c3c2O)c(S(=O)(=O)O)c1 [ADS-J2, 5-[(4-chloro-6-phenylamino-1,3,5-triazine-2-yl)-amino]-4-hydroxy-3-[(4-methyl-6-sulfophenyl)azo]-2,7-naphthalene disulfonic acid]",4.4 µM,promising inhibitory activity,21.9 ± 1.38 µg/mL,promising inhibitory activity,30.8 ± 6.74 µg/mL,9.43,promising inhibitory activity,290 ± 12.4 µg/mL,,,,
C=CC1C[N@@]2CCC1C[C@@H]2C(OC(=O)c1ccc(OC)cc1)c1ccnc2ccccc12 (stereo partly shown) [ADS-J4],> 233 µM,,> 100 µg/mL,,,≤ 1,,,> 100 µg/mL,74.1 ± 0.76 µg/mL,,
CC(c1nc2ccc(Cl)cc2c(=O)n1Cc1ccccc1)N(C(=O)c1ccc([N+](=O)[O-])cc1)c1ccc(F)cc1 (stereo not shown) [ADS-J5],> 180 µM,,> 100 µg/mL,,> 100 µg/mL,≤ 1,,30.2 ± 4.84 µg/mL,,,,
C/C(=N/OC(=O)NS(=O)(=O)c1ccc(C)cc1)c1cc2ccccc2oc1=O [ADS-J6],> 250 µM,,> 100 µg/mL,,> 100 µg/mL,≤ 1,,286 ± 19.3 µg/mL,,,,
CCC1C[N@@]2CCC1C[C@@H]2C(OC(=O)c1ccccc1Cl)c1ccnc2ccc(OC)cc12 (stereo partly shown) [ADS-J7],> 215 µM,,59.8 ± 8.69 µg/mL,,,≤ 1,,,> 100 µg/mL,41.3 ± 2.38 µg/mL,,
O=C(Nc1cc([N+](=O)[O-])ccc1-c1ccc([N+](=O)[O-])cc1)c1ccc([N+](=O)[O-])cc1Cl [ADS-J9],> 226 µM,,> 100 µg/mL,,> 100 µg/mL,≤ 1,,47.2 ± 5.48 µg/mL,,,,
O=C(Nc1ccc(Cl)c(Cl)c1)O/N=C(/c1ccccc1)c1ccc(-c2ccccc2)cc1 [ADS-J10],> 217 µM,,> 100 µg/mL,,> 100 µg/mL,≤ 1,,74.7 ± 6.04 µg/mL,,,,
Cc1ccc(N(C(=O)Nc2ccccc2)C(C)c2nc3ccccc3c(=O)[nH]2)c(C)c1 (stereo not shown) [ADS-J11],> 242 µM,,> 100 µg/mL,,> 100 µg/mL,≤ 1,,40.8 ± 1.67 µg/mL,,,,
Cc1ccc(N(C(=O)Nc2cccc(Cl)c2)C(C)c2nc3ccccc3c(=O)[nH]2)c(C)c1 (stereo not shown) [ADS-J12],> 224 µM,,> 100 µg/mL,,> 100 µg/mL,≤ 1,,54 ± 8.14 µg/mL,,,,
"Cc1ccc(N(C(=O)Nc2ccc(Cl)c(Cl)c2)C(C)c2nc3ccccc3c(=O)[nH]2)c(C)c1 (stereo not shown) [ADS-J13, N′-(3,4-dichlorophenyl)-N-[1-(4-oxo-3,4-dihydroquinazolin-2-yl)ethyl]-N-2,4-dimethyl phenylurea]",> 208 µM,,> 100 µg/mL,does not inhibit,> 100 µg/mL,≤ 1,,39.2 ± 7.6 µg/mL,,,,
"O=C(O)c1ccc(-c2c3nc(c(-c4ccc(C(=O)O)cc4)c4ccc([nH]4)c(-c4ccc(C(=O)O)cc4)c4nc(c(-c5ccc(C(=O)O)cc5)c5ccc2[nH]5)C=C4)C=C3)cc1 [MTCPP, meso-tetra(4-carboxyphenyl)porphyrin, reference compound]",,some inhibitory activity,,,,,,,,,partially inhibited,partially inhibited
"O=S(=O)(O)c1ccc(-c2c3nc(c(-c4ccc(S(=O)(=O)O)cc4)c4ccc([nH]4)c(-c4ccc(S(=O)(=O)O)cc4)c4nc(c(-c5ccc(S(=O)(=O)O)cc5)c5ccc2[nH]5)C=C4)C=C3)cc1 [MTSPP, meso-tetra(4-sulphonatophenyl)porphyrin, reference compound]",,some inhibitory activity,,,,,,,,,partially inhibited,partially inhibited
"C=Cc1c(C)c2cc3nc(c(CC(=O)O)c4[nH]c(cc5nc(cc1[nH]2)C(C)=C5CC)c(C)c4C(=O)O)[C@@H](CCC(=O)O)[C@@H]3C [chlorin e6, reference compound]",,some inhibitory activity,,,,,,,,,partially inhibited,partially inhibited
"[Tyr5,12, Lys7]-polyphemusin II [Compound T-22, reference compound]",,do not inhibit the complex formation,,,,,,,,,,
